Assay: Blood plasma stability of A type I antigen functionalized silica-coated stainless steel (modified ELISA readout)
Type: in vitro ADME, pig
Settings: I-14 bound to silica-coated stainless steel, 12 days agitation
Procedure: Several silica-coated stainless steel samples bearing the A type I antigen were prepared, according to the general procedure defined above. Each of the samples was placed in three different types of pig blood plasma (blood group O, blood group A and commercial pooled blood group O plasma). The samples were agitated on a shaker table for 12 days. After 12 days, the samples were removed from the pig blood plasma and placed in ethanol.
Each silica-coated stainless steel stent surface was treated with a solution of 2% BSA in PBST (200 μL) and shaken (14 h, 5° C.). The surface was then removed and then incubated with mouse anti-A IgM antibodies (5° C., 14 h, 0.023 mg/mL, 50 μL). The surface was then removed, thoroughly washed with PBST and then treated with a secondary HRP conjugated goat anti-mouse IgM antibody (21° C., 3 h, 0.013 mg/mL, 50 μL). The surface was thoroughly washed with PBST to remove unbound antibody and then treated with a solution of SigmaFast OPD (200 μL, 1 h). An aliquot of this solution (100 μL) was then taken and the absorbance measured at 450 nm.

- attachment of antigen to silica-coated stainless steel after plasma incubation (modified ELISA, anti-A IgM, absorbance 450 nm) (pig A blood plasma): confirming the attachment
- attachment of antigen to silica-coated stainless steel after plasma incubation (modified ELISA, anti-A IgM, absorbance 450 nm) (pig O blood plasma): confirming the attachment
- attachment of antigen to silica-coated stainless steel after plasma incubation (modified ELISA, anti-A IgM, absorbance 450 nm) (pig-pooled O blood plasma): confirming the attachment
Compound: CO[Si](CCCSCCCCCCCCO[C@@H]1O[C@H](CO)[C@@H](O)[C@H](O[C@@H]2O[C@H](CO)[C@H](O)[C@H](O[C@H]3O[C@H](CO)[C@H](O)[C@H](O)[C@H]3NC(C)=O)[C@H]2O[C@@H]2O[C@@H](C)[C@@H](O)[C@@H](O)[C@@H]2O)[C@H]1NC(C)=O)(OC)OC [I-14, 8-(3-(trimethoxysilyl)propylthio)octan-1-yl 2-N-Acetyl-3-O-(3-O-(2-N-acetyl-2-deoxy-α-D-galactopyranosyl)-2-O-(α-L-fucopyranosyl)-β-D-galactopyranosyl)-2-deoxy-β-D-glucopyranoside]

From patent US8974793B2, “Methods and systems for inducing immunologic tolerance to non-self antigens” (The Governors Of The University Of Alberta, priority 2008, dated 2015)
